What was measured:
Equ c 1.0102 [1] = molecular target: T1, Equ c 1.0102 (Equus caballus, UniProt A0A3Q2HX90); experiment: fluorescent probe binding (excitation […] nm, emission […] nm)
T1 construct: mature protein, residues 16-187 (signal peptide removed), C-terminal His6 tag, codon-optimized synthetic cDNA in pET-21d(+), E. coli Rosetta-gami 2(DE3), purified by HisTrap
T1 sequence (A0A3Q2HX90 16-187): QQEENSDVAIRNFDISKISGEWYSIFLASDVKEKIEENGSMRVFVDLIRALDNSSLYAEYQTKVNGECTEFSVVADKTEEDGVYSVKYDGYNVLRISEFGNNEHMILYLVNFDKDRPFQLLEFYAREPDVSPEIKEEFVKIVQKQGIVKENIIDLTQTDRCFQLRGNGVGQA

Equ c 1.0102 [2] = molecular target: T1, Equ c 1.0102; experiment: as above; conditions: read-out: dissociation constant
Equ c 1.0102 [3] = molecular target: T1, Equ c 1.0102; experiment: competitive displacement of fluorescent probe 1-NPN, 12-point titration, one-site fit; assay type: binding

Row | Structure (SMILES) | EC50 (Equ c 1.0102 [1]) [µM] | Kd (Equ c 1.0102 [2]) [µM] | Ki (Equ c 1.0102 [3]) [µM]
1 | c1ccc(Nc2cccc3ccccc23)cc1 [1-NPN] | 5 | 6.4 | 
2 | CCCCCCCCCCO [1-decanol] |  |  | 1.1
3 | CC(C)CCCC(C)CCO (stereo not shown) [3,7-dimethyl-1-octanol] |  |  | 0.6

From paper PMC10825075, “Proteomic analysis of horse hair extracts provides no evidence for the existence of a hypoallergenic Curly Horse breed” (Clinical and Translational Allergy, 2024)
